In one data set the test system is HIV-1 BR/93/021. In words: Anti-HIV efficacy in fresh human PBMCs, reverse transcriptase readout, HIV-1 BR/93/021. The data set is classed as cell-based. Particulars: for TI (TC50/IC50): HIV-1 BR/93/021, PBMCs; for IC50: HIV-1 BR/93/021, fresh human PBMCs, seven days, RT activity. The method, then: (§1) Compounds were evaluated for their ability to inhibit HIV replication in fresh human PBMCs. The assay was performed as follows.
(§2) Fresh human PBMCs, seronegative for HIV and HBV, were isolated from screened donors (Interstate Blood Bank, Inc. Memphis, Tenn.). Cells were pelleted/washed 2-3 times by low speed centrifugation and re-suspension in PBS to remove contaminating platelets. The Leukophoresed blood was then diluted 1:1 with Dulbecco's Phosphate Buffered Saline (DPBS) and layered over 14 mL of Lymphocyte Separation Medium (LSM; Cellgro® by Mediatech, Inc.; density 1.078+/−0.002 g/ml; Cat.#85-072-CL) in a 50 mL centrifuge tube and then centrifuged for 30 minutes at 600×g. Banded PBMCs were gently aspirated from the resulting interface and subsequently washed 2× with PBS by low speed centrifugation. After the final wash, cells were enumerated by trypan blue exclusion and re-suspended at 1×10^7 cells/mL in RPMI 1640 supplemented with 15% Fetal Bovine Serum (FBS), and 2 mM L-glutamine, 4 μg/mL Phytohemagglutinin (PHA-P, Sigma). The cells were allowed to incubate for 48-72 hours at 37° C. After incubation, PBMCs were centrifuged and resuspended in RPMI 1640 with 15% FBS, 2 mM L-glutamine, 100 U/mL penicillin, 100 μg/mL streptomycin, 10 μg/mL gentamycin, and 20 U/mL recombinant human IL-2 (R&D Systems, Inc). IL-2 is included in the culture medium to maintain the cell division initiated by the PHA mitogenic stimulation. PBMCs were maintained in this medium at a concentration of 1-2×10^6 cells/mL with biweekly medium changes until used in the assay protocol. Cells were kept in culture for a maximum of two weeks before being deemed too old for use in assays and discarded. Monocytes were depleted from the culture as the result of adherence to the tissue culture flask.
(§3) For the standard PBMC assay, PHA-P stimulated cells from at least two normal donors were pooled (mixed together), diluted in fresh medium to a final concentration of 1×10^6 cells/mL, and plated in the interior wells of a 96 well round bottom microplate at 50 μL/well (5×10^4 cells/well) in a standard format developed by the Infectious Disease Research department of Southern Research Institute. Pooling (mixing) of mononuclear cells from more than one donor is used to minimize the variability observed between individual donors, which results from quantitative and qualitative differences in HIV infection and overall response to the PHA and IL-2 of primary lymphocyte populations. Each plate contains virus/cell control wells (cells plus virus), experimental wells (drug plus cells plus virus) and compound control wells (drug plus media without cells, necessary for MTS monitoring of cytotoxicity). Since HIV-1 is not cytopathic to PBMCs, this allows the use of the same assay plate for both antiviral activity and cytotoxicity measurements. Test drug dilutions were prepared at a 2× concentration in microtiter tubes and 100 μL of each concentration was placed in appropriate wells using the standard format. 50 μL of a predetermined dilution of virus stock was placed in each test well (final MOI≅0.1). The PBMC cultures were maintained for seven days following infection at 37° C., 5% CO2. After this period, cell-free supernatant samples were collected for analysis of reverse transcriptase activity as a measure of virus release. Following removal of supernatant samples, compound cytotoxicity was measured by addition of MTS to the plates for determination of cell viability. Wells were also examined microscopically and any abnormalities were noted.
(§4) A microtiter plate-based reverse transcriptase (RT) reaction was utilized (Buckheit et al., AIDS Research and Human Retroviruses 7:295-302, 1991). Tritiated thymidine triphosphate (3H-TTP, 80 Ci/mmol, NEN) was received in 1:1 dH2O:Ethanol at 1 mCi/mL. […]

A further data set has as its target T1, HIV-1 Rev (Human immunodeficiency virus type 1 group M subtype B, UniProt P04618).
T1 construct: expressed in transfected cells
Kind of data set: cell-based. Particulars: for TI (TC50/IC50): Rev assay. The method, then:
The eight compounds listed in Table 1 were also tested in an assay that measured HIV-1 Rev function. […] The reporter used for these assays is the Renilla Luciferase protein, which is an enzyme that produces detectable light when mixed with certain chemicals. For this assay, a cell line has been developed in which the production of the reporter by the cells requires the function of HIV-1 Rev. Therefore, if a drug candidate inhibits the function of Rev, it decreases the amount of the reporter produced by the cells. By using Renilla Luciferase as the reporter, the inhibition of Rev is easily detected as a decrease in the amount of light produced by the cells when mixed with the appropriate chemicals.
(§5) Compounds were tested in the Rev assay using the maximum high-test concentration possible based on the supplied stocks as shown in Table 3. Compounds were prepared at a 2× high-test concentration by combining drug stock with tissue culture media at a ratio of 5 μL of drug to 995 μL of media. This 2× high-test sample was subsequently serially diluted in tissue culture media using 1/2 log dilutions. This series of 2× concentrated drug was subsequently diluted 1:1 by combining with an equal volume of cells in media in the 96-well plates used for the assay.

A further data set has as its system HIV-1 NL4-3. In words: Anti-HIV efficacy in fresh human PBMCs, reverse transcriptase readout, HIV-1 NL4-3. In kind it is cell-based. The following applies: for TI (TC50/IC50): HIV-1 NL4-3, PBMCs; for IC50: HIV-1 NL4-3, fresh human PBMCs, seven days, RT activity. The method, then: as §1, §2, §3, §4
Data set [1] can be described thus: MTS staining for cell viability in U1 cell assay. The data set is classed as cell-based. The following applies: human, U1 cells stimulated with TNF-α, read-out: TC50. The method, then: At the time of the assay, cells were collected by centrifugation and counted by hemacytometer. If cell viability by Trypan Blue dye exclusion was less than 70% the assay was terminated. The cells were adjusted to 5×10^4 cells/mL and 100 μL placed in 96 well plates with 100 μL media containing a final concentration of 5 ng/mL TNF-α and the test compound. Cultures were incubated for 3 days and supernatants harvested. Compound toxicity was determined by MTS dye reduction. Virus expression was measured by supernatant reverse transcriptase activity.
At assay termination, the assay plates were stained with the soluble tetrazolium-based dye MTS (CellTiter 96 Reagent, Promega) to determine cell viability and quantify compound toxicity as described for the PBMC assay.
as §5, with “U1 latency” for “Rev”, “which are listed” for “as shown”, “table” for “Table”, “3. Compounds were tested using the maximum high-test concentration possible based on the supplied stocks.” for “3.”, “assay. Temacrazine a known inhibitor of HIV transcription was used as a control compound that is active in the post-integration part of the HIV life cycle.” for “assay.”
Compounds were tested using the maximum high-test concentration possible based on the supplied stocks. Compounds were prepared at a 2× high-test concentration by combining drug stock with tissue culture media at a ratio of 5 μL of drug to 995 μL of media. This 2× high-test (HT) sample was subsequently serially diluted in tissue culture media using 1/2 log dilutions. This series of 2× concentrated drug was subsequently diluted 1:1 by combining with an equal volume of cells in media in the 96-well plates used for the assay.

[2] abbreviates: Human immunodeficiency virus 1, PBMC, 168 h.
Where [3] appears, read: 50% inhibition of Renilla Luciferase, 24 hours, HeLa reporter line, read-out: IC50.
Setting [4] is: Human immunodeficiency virus 1, NL43, PBMC, 168 h.

Read-outs that look alike come from different tables or passages of the source.

T1 sequence (P04618 whole entry, looked up): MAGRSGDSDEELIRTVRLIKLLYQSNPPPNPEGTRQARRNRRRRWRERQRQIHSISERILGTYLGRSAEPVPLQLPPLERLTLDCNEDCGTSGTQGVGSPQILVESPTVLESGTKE

The IC50 is the midpoint of a concentration-inhibition curve. On to `COc1ccc2nc(C(F)(F)F)c(C#N)c(N)c2c1` [Compound 104366, 4-amino-6-methoxy-2-(trifluoromethyl)-3-quinolinecarbonitrile], for which the figures for the “TI (TC50/IC50)” value with HIV-1 BR/93/021, at HIV-1 Rev and in the data set on HIV-1 NL4-3 were 38.91, 7.68 and 23.91, respectively. Besides, the half-inhibitory concentration (IC50) in the data set on HIV-1 BR/93/021 (setting [2]) was determined as 640 nM; on HIV-1 Rev (setting [3]), 2240 nM; in the data set with HIV-1 NL4-3 (setting [4]), 920 nM. Besides, the CC50 at 3 days in data set [1] (Table 6, MTS) amounted to 12400 nM.
With `CCc1c(C)nc2sc(C(N)=O)c(N)c2c1C` [Compound 103833, 3-amino-5-ethyl-4,6-dimethylthieno[2,3-b]pyridine-2-carboxamide], the figures for the “TI (TC50/IC50)” value in the data set on HIV-1 BR/93/021 and with HIV-1 NL4-3 were more than 129.66 and more than 16.94, respectively. In addition, the 50% inhibitory concentration (IC50) in the data set with HIV-1 BR/93/021 (setting [2]) was 290 nM; on HIV-1 Rev, 1070 nM; with HIV-1 NL4-3 (setting [4]), 2220 nM. The CC50 at 3 days in data set [1] (Table 6, MTS) was more than 37600 nM.
For the molecule `CS(=O)(=O)c1ncc(-c2ccc(Br)cc2)cn1` [Compound 107129, -(4-bromophenyl)-2-(methylsulfonyl)pyrimidine], the results for the “TI (TC50/IC50)” value with HIV-1 BR/93/021, on HIV-1 Rev and in the data set with HIV-1 NL4-3 were 3.48, 4.13 and 1.95, respectively. For the same molecule, the figures for the IC50 in the data set with HIV-1 BR/93/021 (setting [2]), on HIV-1 Rev (setting [3]) and in the data set with HIV-1 NL4-3 (setting [4]) were 1800 nM, 7480 nM and 2120 nM, respectively. Also, the CC50 at 3 days in data set [1] (Table 6, MTS) is more than 53000 nM.
Turning to `COc1ccc2cc3c(N)n[nH]c3nc2c1` [Compound 89246, 7-methoxy-1H-pyrazolo[3,4-b]quinolin-3-ylamine], the “TI (TC50/IC50)” value in the data set with HIV-1 BR/93/021 was found to be 69.57; at HIV-1 Rev, 17.52; in the data set with HIV-1 NL4-3 it was 14.90. Moreover, the values for the IC50 in the data set on HIV-1 BR/93/021 (setting [2]), at HIV-1 Rev (setting [3]) and in the data set on HIV-1 NL4-3 (setting [4]) were 470 nM, 480 nM and 1470 nM, respectively. Moreover, the CC50 at 3 days worked out at 24600 nM in data set [1] (Table 6, MTS) and 29000 nM in data set [1] (analogs, Table 8, MTS).
As to `CCc1c(C(=O)Nc2ccccc2)c(C)nc2sc(C(N)=O)c(N)c12` [Compound 75168, 3-amino-4-ethyl-6-methyl-N˜5˜-phenylthieno[2,3-b]pyridine-2,5-dicarboxamide], the “TI (TC50/IC50)” value with HIV-1 BR/93/021 is reported as more than 12.52; at HIV-1 Rev it was 3.27; in the data set with HIV-1 NL4-3 it was more than 1.59. Also, the IC50 with HIV-1 BR/93/021 (setting [2]) amounted to 2140 nM; at HIV-1 Rev (setting [3]), 2420 nM; in the data set with HIV-1 NL4-3 (setting [4]), 16900 nM.
For “2-chloro-N-(4-methylphenyl)-4-(trifluoromethyl)-1,3-thazole-5-carboxamide [Compound 91161]”, the “TI (TC50/IC50)” value in the data set on HIV-1 BR/93/021 is 12.01; at HIV-1 Rev, more than 4.06; with HIV-1 NL4-3, 5.92. The IC50 with HIV-1 BR/93/021 amounted to 1940 nM; at HIV-1 Rev (setting [3]) it was 9730 nM; in the data set with HIV-1 NL4-3 it was 2280 nM.
For `COc1cccc(NC(=O)c2cc(Cl)nnc2Cl)c1` [Compound 107740, 3,6-dichloro-N-(3-methoxyphenyl)-4-pyridazinecarboxamide], the “TI (TC50/IC50)” value with HIV-1 BR/93/021 was 94.00; on HIV-1 Rev it was 2.31; with HIV-1 NL4-3 it was 8.94. Moreover, the half-inhibitory concentration (IC50) turned out to be 200 nM with HIV-1 BR/93/021 (setting [2]), 8000 nM on HIV-1 Rev (setting [3]) and 1610 nM with HIV-1 NL4-3 (setting [4]). The CC50 at 3 days in data set [1] (Table 6, MTS) is more than 29300 nM.
For the molecule `Fc1ccc(Nc2ncnc3ccccc23)cc1Cl` [Compound 109020, N-(3-chloro-4-fluorophenyl)-N-(4-quinazolinyl)amine], the results for the “TI (TC50/IC50)” value in the data set with HIV-1 BR/93/021, on HIV-1 Rev and in the data set on HIV-1 NL4-3 were more than 3.09, more than 4.54 and more than 1.55, respectively. In addition, the figures for the IC50 in the data set on HIV-1 BR/93/021 (setting [2]), at HIV-1 Rev and in the data set with HIV-1 NL4-3 (setting [4]) were 13200 nM, 8980 nM and 26400 nM, respectively. In addition, the CC50 at 3 days in data set [1] (Table 6, MTS) was more than 40800 nM.

(Values after US7875604B2, “Compounds that inhibit HIV particle formation” (University of Virginia Patent Foundation, priority 2004, dated 2011).)
